Assay results reported in patent US9546367B2, “siRNA compositions and methods for inhibiting gene expression in tumor initiating cells of breast cancer” (priority 2011, dated 2017).

Tests used:
iNOS = assay: Western blot of nitric oxide synthases after siRNA knockdown; assay type: cell-based, human; conditions: three triple-negative cell lines (SUM159, BT549, MDAMB231) treated in vitro with siRNA
Description: (§1) In order to confirm the pathways involved in BCSC targeting, western blot analysis was conducted with siRNA knockdown and overexpression of RPL39 and MLF2 in three breast cancer cell lines (SUM159, BT549 and MDAMB231). Briefly, 30 μg of whole cell extracts were quantified and run on a 4-20% gel for 1 hr, and transferred onto nitrocellulose membranes. The primary antibodies were incubated overnight at the following dilutions eNOS (1:500), nNOS (1:500), and iNOS (1:1000) (Millipore, Bellerica, Mass., USA) followed by one-hour secondary antibody incubation, and development using chemiluminescence.

nNOS = assay: as above; assay type: cell-based, human; conditions: three triple-negative cell lines treated in vitro with siRNA
Description: as §1

eNOS = assay: as above; assay type: cell-based, human; conditions: three triple-negative cell lines treated in vitro with siRNA
Description: as §1

MDAMB231 = assay: in vitro MSFE with packaged siRNA; assay type: cell-based, human; conditions: Day 8, p<0.05
From the text: FIG. 7A, FIG. 7B, and FIG. 7C show confirmation of BCSC target genes and comparison of changes in mammosphere formation efficiency. […] Data analyzed by one-way ANOVA and plotted as mean±SEM for n=6 replicates; *p<0.05;
(§2) The siRNA sequences of two candidate genes RPL39 and MLF2 were packaged in nanoliposomes and the effects on MSFE determined in vitro, as described above, using packaged siRNA instead of lentiviral shRNA.

MDAMB231 lung metastasis = assay: in vivo lung metastasis of luciferase-tagged MDAMB231, IVIS imaging; parameters: species or system SCID-beige mice; conditions: siRNA in cationic liposomes twice weekly; for lung metastasis (animals with metastasis / animals), IVIS imaging: week six; for luminescence (luciferase analysis): p<0.05
Description: 3 million cells MDAMB231 cancer cells, stably transfected with luciferase, were injected in the mammary fat pad of SCID-beige mice and were randomized into 3 groups: (1) vehicle+scrambled siRNA, (2) vehicle+MLF2 siRNA, and (3) vehicle+RPL39 siRNA, and treated with siRNA packaged liposomes twice weekly for 6 weeks. The mice were injected with D-luciferin every week for 6 weeks to determine lung metastases using IVIS imaging (Perkin Elmer). The primary tumors were removed by week 5 to continue this study without increasing the primary tumor burden to 10% of body weight.
To assess the effects of RPL39 and MLF2 siRNA on lung metastasis, SCID-Beige mice were injected with luciferase-tagged MDAMB231 cells and treated with siRNA against RPL39 or MLF2 packaged in cationic liposomes, twice weekly simultaneously, and then sacrificed at week six.

SUM159 tumor = assay: MDS/siRNA by tail vein in SUM159 tumor mice, MSFE of isolated cells; assay type: in vivo, SCID/Beige mice; conditions: MDS/siRNA by tail vein injection, cells isolated 3 weeks later
Description: (§3) To develop siRNA nanotherapeutics targeting TIC, studies have been conducted to confirm the essential roles of the candidate TIC genes. Exemplary siRNA oligonucleotides specific for STAT3, MFL2, and RPL39L were formulated into nanoliposomes, which were then loaded into porous silicon MSV particles. For in vitro assay, BT549 and SUM159 cells were incubated with MSV/siRNA, and primary and secondary MSFE was measured. […] For in vivo assessment, SCID/Beige mice were inoculated with SUM159 tumor, and treated with MDS/siRNA delivered by tail vein injection. Cells were then isolated from tumor mice 3 weeks later, and MSFE was measured. […] These studies indicate that 1) MDS/siRNA could successfully be delivered to tumor tissues effectively in vivo, 2) uptake of MDS/siRNA by TIC was efficient, and 3) MFL2 and RPL39L were essential genes for TIC.

SUM159 = assay: in vitro MSFE with nanoliposome/silicon particle packaged siRNA; assay type: cell-based, human; conditions: for secondary MSFE: SUM159, siRNA, Day 8, p<0.05; for primary and secondary MSFE: SUM159 incubated with MSV/siRNA
Description: (§4) “Claudin-low”-like human breast cancer cell lines (SUM159 and BT549) were plated in 24-well ultralow attachment plates with mammary epithelial growth medium (MEGM) (5,000 cells/well). Both cell lines were then treated with 1 μg/well/6 wells of silicon particles loaded with DOPC nanoliposomes/siRNA. The primary MSs were allowed to grow for 3 days. MFs were counted on Day 3 with a GelCount colony counter (Oxford Optronix, Oxford, UK). Mammosphere-Forming Efficiency (MSFE) was calculated by dividing the number of MSs by the number of seeded cells. In addition, established MSs were serially passaged by dissociation, and single cells were re-plated on fresh 24-well, ultra-low-attachment plates to form secondary mammospheres, which were counted after 3 days. One-way ANOVA and Tukey tests were performed. A p-value of less than 0.05 was considered significant.
(§5) To develop a more clinically relevant model, two of the identified candidates (MLF2 and RPL39L) were compared to Stat3 (positive control), and their siRNA sequences identified within the shRNA vector. These siRNAs were then packaged in nanoliposomes and tested for MSFE using the same protocol as above, except for the addition of packaged siRNA instead of lentiviral shRNA. (N.B. wherein shRNA requires a promoter and needs to be transcribed in order to function, siRNA functions by itself once incorporated into recipient cells).
as §3, §2

BT549 = assay: as above; assay type: cell-based, human; conditions: for secondary MSFE: BT549, siRNA, Day 8, p<0.05; for primary and secondary MSFE: BT549 incubated with MSV/siRNA
Description: as §4, §5, §3, §2

Substance | iNOS signaling (iNOS) | nNOS (nNOS) | eNOS (eNOS) | secondary MSFE (MDAMB231) | lung metastasis (animals with metastasis / animals), IVIS imaging (MDAMB231 lung metastasis) | luminescence (luciferase analysis) (MDAMB231 lung metastasis) | MSFE of cells isolated from tumor mice (SUM159 tumor) | secondary MSFE (SUM159) | primary and secondary MSFE (SUM159) | secondary MSFE (BT549) | primary and secondary MSFE (BT549)
MLF2 siRNA: siRNA against myeloid leukemia factor 2; sense SEQ ID NO: 3 CCCTGATGGATCCCTTTGCTAT, antisense SEQ ID NO: 19 ATAGCAAAGGGATCCATCAGGA (packaged in nanoliposomes, chemistry not given here, further chemistry not given here) | clear reduction | no changes | decrease | significantly reduced | 8/12 | significant reduction | Dramatic reduction | significantly reduced | significant reduction | significantly reduced | significant reduction
RPL39 siRNA: siRNA against ribosomal protein L39-like; sense SEQ ID NO: 15 ACGATTCCTGGCCAAGAAACAA, antisense SEQ ID NO: 31 TTGTTTCTTGGCCAGGAATCGC (listed as DNA, chemistry not fully specified) | clear reduction | no changes | decrease | significantly reduced | 5/11 | significant reduction | Dramatic reduction | significantly reduced | significant reduction | significantly reduced | significant reduction
